One test concerns 429239-143-T-J1-PDC complex spheroid viability. Briefly: Anticancer human tumor 429239-143-T-J1-PDC patient-derived small cell lung carcinoma cell line growth inhibition [POLQ]. The note with it: curve of first compound; second compound 0.0316 µM. The method, boiled down: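 Growth inhibition in 3D: complex spheroids (tumor PDC, HUVEC, MSC) treated with POLQ inhibitor combinations; where Cmax unknown, highest tested concentration 10 microM, except SN-38 at 1 microM.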
Consider `C=CCn1c(=O)c2cnc(Nc3ccc(N4CCN(C)CC4)cc3)nc2n1-c1cccc(C(C)(C)O)n1` + COC1C(OC(N)=O)C(O)C(Oc2ccc3c(O)c(NC(=O)c4ccc(O)c(CC=C(C)C)c4)c(=O)oc3c2C)OC1(C)C, for which the half-maximal inhibitory concentration (IC50) (in general, the point on the concentration scale where inhibition reaches its midpoint) is 576 nM.
Same read-out and setting: in the case of `CCc1c2c(nc3ccc(O)cc13)-c1cc3c(c(=O)n1C2)COC(=O)[C@]3(O)CC` + COC1C(OC(N)=O)C(O)C(Oc2ccc3c(O)c(NC(=O)c4ccc(O)c(CC=C(C)C)c4)c(=O)oc3c2C)OC1(C)C it was < 3.16 nM; in that of `CNCc1ccc(-c2[nH]c3cc(F)cc4c3c2CCNC4=O)cc1` + COC1C(OC(N)=O)C(O)C(Oc2ccc3c(O)c(NC(=O)c4ccc(O)c(CC=C(C)C)c4)c(=O)oc3c2C)OC1(C)C, 2300 nM.
On the same count and under the same terms, next, `O=C(c1cc(Cc2n[nH]c(=O)c3ccccc23)ccc1F)N1CCN(C(=O)C2CC2)CC1` + COC1C(OC(N)=O)C(O)C(Oc2ccc3c(O)c(NC(=O)c4ccc(O)c(CC=C(C)C)c4)c(=O)oc3c2C)OC1(C)C: 1940 nM.

The test is the same for the next values; noted with them: curve of first compound; second compound 0.1 µM.
Regarding `C=CCn1c(=O)c2cnc(Nc3ccc(N4CCN(C)CC4)cc3)nc2n1-c1cccc(C(C)(C)O)n1` + COC1C(OC(N)=O)C(O)C(Oc2ccc3c(O)c(NC(=O)c4ccc(O)c(CC=C(C)C)c4)c(=O)oc3c2C)OC1(C)C, the IC50 was determined as 464 nM.
Same read-out and setting: next, `CCc1c2c(nc3ccc(O)cc13)-c1cc3c(c(=O)n1C2)COC(=O)[C@]3(O)CC` + COC1C(OC(N)=O)C(O)C(Oc2ccc3c(O)c(NC(=O)c4ccc(O)c(CC=C(C)C)c4)c(=O)oc3c2C)OC1(C)C: < 3.16 nM; `CNCc1ccc(-c2[nH]c3cc(F)cc4c3c2CCNC4=O)cc1` + COC1C(OC(N)=O)C(O)C(Oc2ccc3c(O)c(NC(=O)c4ccc(O)c(CC=C(C)C)c4)c(=O)oc3c2C)OC1(C)C: 2400 nM; `O=C(c1cc(Cc2n[nH]c(=O)c3ccccc23)ccc1F)N1CCN(C(=O)C2CC2)CC1` + COC1C(OC(N)=O)C(O)C(Oc2ccc3c(O)c(NC(=O)c4ccc(O)c(CC=C(C)C)c4)c(=O)oc3c2C)OC1(C)C: 1960 nM.

The same test, now with this note: curve of first compound; second compound 0.316 µM.
With `C=CCn1c(=O)c2cnc(Nc3ccc(N4CCN(C)CC4)cc3)nc2n1-c1cccc(C(C)(C)O)n1` + COC1C(OC(N)=O)C(O)C(Oc2ccc3c(O)c(NC(=O)c4ccc(O)c(CC=C(C)C)c4)c(=O)oc3c2C)OC1(C)C, the IC50 was determined as 591 nM.
Regarding `CCc1c2c(nc3ccc(O)cc13)-c1cc3c(c(=O)n1C2)COC(=O)[C@]3(O)CC` + COC1C(OC(N)=O)C(O)C(Oc2ccc3c(O)c(NC(=O)c4ccc(O)c(CC=C(C)C)c4)c(=O)oc3c2C)OC1(C)C, the concentration for half-maximal inhibition (IC50) was < 3.16 nM.
Same read-out and setting: next, `CNCc1ccc(-c2[nH]c3cc(F)cc4c3c2CCNC4=O)cc1` + COC1C(OC(N)=O)C(O)C(Oc2ccc3c(O)c(NC(=O)c4ccc(O)c(CC=C(C)C)c4)c(=O)oc3c2C)OC1(C)C: 2570 nM.
On the same count and under the same terms, in the case of `O=C(c1cc(Cc2n[nH]c(=O)c3ccccc23)ccc1F)N1CCN(C(=O)C2CC2)CC1` + COC1C(OC(N)=O)C(O)C(Oc2ccc3c(O)c(NC(=O)c4ccc(O)c(CC=C(C)C)c4)c(=O)oc3c2C)OC1(C)C it was 1700 nM.

Still in this test, the particulars now being: curve of first compound; second compound 1 µM.
With `C=CCn1c(=O)c2cnc(Nc3ccc(N4CCN(C)CC4)cc3)nc2n1-c1cccc(C(C)(C)O)n1` + COC1C(OC(N)=O)C(O)C(Oc2ccc3c(O)c(NC(=O)c4ccc(O)c(CC=C(C)C)c4)c(=O)oc3c2C)OC1(C)C, the IC50 was 580 nM.
On to `CCc1c2c(nc3ccc(O)cc13)-c1cc3c(c(=O)n1C2)COC(=O)[C@]3(O)CC` + COC1C(OC(N)=O)C(O)C(Oc2ccc3c(O)c(NC(=O)c4ccc(O)c(CC=C(C)C)c4)c(=O)oc3c2C)OC1(C)C, for which the IC50 is < 3.16 nM.
On the same count and under the same terms, in the case of `CNCc1ccc(-c2[nH]c3cc(F)cc4c3c2CCNC4=O)cc1` + COC1C(OC(N)=O)C(O)C(Oc2ccc3c(O)c(NC(=O)c4ccc(O)c(CC=C(C)C)c4)c(=O)oc3c2C)OC1(C)C it was 2700 nM.
With `O=C(c1cc(Cc2n[nH]c(=O)c3ccccc23)ccc1F)N1CCN(C(=O)C2CC2)CC1` + COC1C(OC(N)=O)C(O)C(Oc2ccc3c(O)c(NC(=O)c4ccc(O)c(CC=C(C)C)c4)c(=O)oc3c2C)OC1(C)C, the IC50 was 1970 nM.

The test is the same for the next values; noted with them: curve of first compound; second compound 3.16 µM.
`C=CCn1c(=O)c2cnc(Nc3ccc(N4CCN(C)CC4)cc3)nc2n1-c1cccc(C(C)(C)O)n1` + COC1C(OC(N)=O)C(O)C(Oc2ccc3c(O)c(NC(=O)c4ccc(O)c(CC=C(C)C)c4)c(=O)oc3c2C)OC1(C)C: the IC50 is 632 nM.
For the compound `CCc1c2c(nc3ccc(O)cc13)-c1cc3c(c(=O)n1C2)COC(=O)[C@]3(O)CC` + COC1C(OC(N)=O)C(O)C(Oc2ccc3c(O)c(NC(=O)c4ccc(O)c(CC=C(C)C)c4)c(=O)oc3c2C)OC1(C)C, the IC50 was < 3.16 nM.
Regarding `CNCc1ccc(-c2[nH]c3cc(F)cc4c3c2CCNC4=O)cc1` + COC1C(OC(N)=O)C(O)C(Oc2ccc3c(O)c(NC(=O)c4ccc(O)c(CC=C(C)C)c4)c(=O)oc3c2C)OC1(C)C, the IC50 was 1840 nM.
Still for that read-out and setting: in the case of `O=C(c1cc(Cc2n[nH]c(=O)c3ccccc23)ccc1F)N1CCN(C(=O)C2CC2)CC1` + COC1C(OC(N)=O)C(O)C(Oc2ccc3c(O)c(NC(=O)c4ccc(O)c(CC=C(C)C)c4)c(=O)oc3c2C)OC1(C)C it was 1700 nM.

Still in this test, the particulars now being: curve of first compound; second compound 10 µM.
Take `C=CCn1c(=O)c2cnc(Nc3ccc(N4CCN(C)CC4)cc3)nc2n1-c1cccc(C(C)(C)O)n1` + COC1C(OC(N)=O)C(O)C(Oc2ccc3c(O)c(NC(=O)c4ccc(O)c(CC=C(C)C)c4)c(=O)oc3c2C)OC1(C)C: the IC50 came to 600 nM.
Still for that read-out and setting: next, `CCc1c2c(nc3ccc(O)cc13)-c1cc3c(c(=O)n1C2)COC(=O)[C@]3(O)CC` + COC1C(OC(N)=O)C(O)C(Oc2ccc3c(O)c(NC(=O)c4ccc(O)c(CC=C(C)C)c4)c(=O)oc3c2C)OC1(C)C: < 3.16 nM; `CNCc1ccc(-c2[nH]c3cc(F)cc4c3c2CCNC4=O)cc1` + COC1C(OC(N)=O)C(O)C(Oc2ccc3c(O)c(NC(=O)c4ccc(O)c(CC=C(C)C)c4)c(=O)oc3c2C)OC1(C)C: 1580 nM; `O=C(c1cc(Cc2n[nH]c(=O)c3ccccc23)ccc1F)N1CCN(C(=O)C2CC2)CC1` + COC1C(OC(N)=O)C(O)C(Oc2ccc3c(O)c(NC(=O)c4ccc(O)c(CC=C(C)C)c4)c(=O)oc3c2C)OC1(C)C: 1360 nM.

Still in this test, the particulars now being: second compound 0.0316 µM; first compound 0.00316 µM; stronger effect = lower value.
For `C=CCn1c(=O)c2cnc(Nc3ccc(N4CCN(C)CC4)cc3)nc2n1-c1cccc(C(C)(C)O)n1` + COC1C(OC(N)=O)C(O)C(Oc2ccc3c(O)c(NC(=O)c4ccc(O)c(CC=C(C)C)c4)c(=O)oc3c2C)OC1(C)C, the viability, T/C (in general, the ratio of treated to control) is 105%.
Still for that read-out and setting: next, `CCc1c2c(nc3ccc(O)cc13)-c1cc3c(c(=O)n1C2)COC(=O)[C@]3(O)CC` + COC1C(OC(N)=O)C(O)C(Oc2ccc3c(O)c(NC(=O)c4ccc(O)c(CC=C(C)C)c4)c(=O)oc3c2C)OC1(C)C: 19.1%.

The test is the same for the next values; noted with them: second compound 0.0316 µM; first compound 0.01 µM; stronger effect = lower value.
Turning to `C=CCn1c(=O)c2cnc(Nc3ccc(N4CCN(C)CC4)cc3)nc2n1-c1cccc(C(C)(C)O)n1` + COC1C(OC(N)=O)C(O)C(Oc2ccc3c(O)c(NC(=O)c4ccc(O)c(CC=C(C)C)c4)c(=O)oc3c2C)OC1(C)C, the viability, T/C was 93%.
As for `CCc1c2c(nc3ccc(O)cc13)-c1cc3c(c(=O)n1C2)COC(=O)[C@]3(O)CC` + COC1C(OC(N)=O)C(O)C(Oc2ccc3c(O)c(NC(=O)c4ccc(O)c(CC=C(C)C)c4)c(=O)oc3c2C)OC1(C)C, the viability, T/C was 17.6%.

The test is the same for the next values; noted with them: second compound 0.0316 µM; first compound 0.0316 µM; stronger effect = lower value.
On to `C=CCn1c(=O)c2cnc(Nc3ccc(N4CCN(C)CC4)cc3)nc2n1-c1cccc(C(C)(C)O)n1` + COC1C(OC(N)=O)C(O)C(Oc2ccc3c(O)c(NC(=O)c4ccc(O)c(CC=C(C)C)c4)c(=O)oc3c2C)OC1(C)C, for which the viability, T/C was 104%.
Take `CCc1c2c(nc3ccc(O)cc13)-c1cc3c(c(=O)n1C2)COC(=O)[C@]3(O)CC` + COC1C(OC(N)=O)C(O)C(Oc2ccc3c(O)c(NC(=O)c4ccc(O)c(CC=C(C)C)c4)c(=O)oc3c2C)OC1(C)C: the viability, T/C is 17.5%.
In the case of `CNCc1ccc(-c2[nH]c3cc(F)cc4c3c2CCNC4=O)cc1` + COC1C(OC(N)=O)C(O)C(Oc2ccc3c(O)c(NC(=O)c4ccc(O)c(CC=C(C)C)c4)c(=O)oc3c2C)OC1(C)C, the viability, T/C was 95.1%.
The same measure, in the same setting: next, `O=C(c1cc(Cc2n[nH]c(=O)c3ccccc23)ccc1F)N1CCN(C(=O)C2CC2)CC1` + COC1C(OC(N)=O)C(O)C(Oc2ccc3c(O)c(NC(=O)c4ccc(O)c(CC=C(C)C)c4)c(=O)oc3c2C)OC1(C)C: 97.2%.

Staying with this test, now noted: second compound 0.0316 µM; first compound 0.1 µM; stronger effect = lower value.
Take `C=CCn1c(=O)c2cnc(Nc3ccc(N4CCN(C)CC4)cc3)nc2n1-c1cccc(C(C)(C)O)n1` + COC1C(OC(N)=O)C(O)C(Oc2ccc3c(O)c(NC(=O)c4ccc(O)c(CC=C(C)C)c4)c(=O)oc3c2C)OC1(C)C: the viability, T/C is 104%.
Still for that read-out and setting: next, `CCc1c2c(nc3ccc(O)cc13)-c1cc3c(c(=O)n1C2)COC(=O)[C@]3(O)CC` + COC1C(OC(N)=O)C(O)C(Oc2ccc3c(O)c(NC(=O)c4ccc(O)c(CC=C(C)C)c4)c(=O)oc3c2C)OC1(C)C: 20%; `CNCc1ccc(-c2[nH]c3cc(F)cc4c3c2CCNC4=O)cc1` + COC1C(OC(N)=O)C(O)C(Oc2ccc3c(O)c(NC(=O)c4ccc(O)c(CC=C(C)C)c4)c(=O)oc3c2C)OC1(C)C: 75%.
In the case of `O=C(c1cc(Cc2n[nH]c(=O)c3ccccc23)ccc1F)N1CCN(C(=O)C2CC2)CC1` + COC1C(OC(N)=O)C(O)C(Oc2ccc3c(O)c(NC(=O)c4ccc(O)c(CC=C(C)C)c4)c(=O)oc3c2C)OC1(C)C, the viability, T/C was 80.8%.

The same test, now with this note: second compound 0.0316 µM; first compound 0.316 µM; stronger effect = lower value.
For the compound `C=CCn1c(=O)c2cnc(Nc3ccc(N4CCN(C)CC4)cc3)nc2n1-c1cccc(C(C)(C)O)n1` + COC1C(OC(N)=O)C(O)C(Oc2ccc3c(O)c(NC(=O)c4ccc(O)c(CC=C(C)C)c4)c(=O)oc3c2C)OC1(C)C, the viability, T/C is 85.7%.
`CCc1c2c(nc3ccc(O)cc13)-c1cc3c(c(=O)n1C2)COC(=O)[C@]3(O)CC` + COC1C(OC(N)=O)C(O)C(Oc2ccc3c(O)c(NC(=O)c4ccc(O)c(CC=C(C)C)c4)c(=O)oc3c2C)OC1(C)C: the viability, T/C was 17.5%.
In the case of `CNCc1ccc(-c2[nH]c3cc(F)cc4c3c2CCNC4=O)cc1` + COC1C(OC(N)=O)C(O)C(Oc2ccc3c(O)c(NC(=O)c4ccc(O)c(CC=C(C)C)c4)c(=O)oc3c2C)OC1(C)C, the viability, T/C is 87.1%.
In the case of `O=C(c1cc(Cc2n[nH]c(=O)c3ccccc23)ccc1F)N1CCN(C(=O)C2CC2)CC1` + COC1C(OC(N)=O)C(O)C(Oc2ccc3c(O)c(NC(=O)c4ccc(O)c(CC=C(C)C)c4)c(=O)oc3c2C)OC1(C)C, the viability, T/C was 79.1%.

The test is the same for the next values; noted with them: second compound 0.0316 µM; first compound 1 µM; stronger effect = lower value.
For `C=CCn1c(=O)c2cnc(Nc3ccc(N4CCN(C)CC4)cc3)nc2n1-c1cccc(C(C)(C)O)n1` + COC1C(OC(N)=O)C(O)C(Oc2ccc3c(O)c(NC(=O)c4ccc(O)c(CC=C(C)C)c4)c(=O)oc3c2C)OC1(C)C, the viability, T/C was 17.1%.
The same measure, in the same setting: next, `CCc1c2c(nc3ccc(O)cc13)-c1cc3c(c(=O)n1C2)COC(=O)[C@]3(O)CC` + COC1C(OC(N)=O)C(O)C(Oc2ccc3c(O)c(NC(=O)c4ccc(O)c(CC=C(C)C)c4)c(=O)oc3c2C)OC1(C)C: 8.92%.

(Values after PubChem BioAssay AID1963845 (Molecular Pharmacology Branch, DTP, NCI, 2024).)
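Also: luminescence signal used as surrogate measure of viable cells; spheroids exposed to compounds for seven days before readout.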
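For viability, T/C in this document: 100% = DMSO vehicle control viability as luminescence relative to vehicle.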
